Assay results: PMC3914206

Key:
Format in all cases: binding
Set-up in all cases: KINOMEscan: ABL1(F317L)-phosphorylated / KINOMEscan: ABL1(H396P)-nonphosphorylated / KINOMEscan: ABL1(H396P)-phosphorylated / KINOMEscan: ABL1(M351T)-phosphorylated / KINOMEscan: ABL1(T315I)-phosphorylated / KINOMEscan: ABL1-nonphosphorylated / KINOMEscan: ABL1-phosphorylated / KINOMEscan: ACVR2A / KINOMEscan: ACVR2B / KINOMEscan: ADCK3 / KINOMEscan: ADCK4 / KINOMEscan: AKT1 / KINOMEscan: AKT3 / KINOMEscan: ALK / KINOMEscan: ARK5 / KINOMEscan: AURKA / KINOMEscan: AURKC / KINOMEscan: BIKE / KINOMEscan: BMPR1A / KINOMEscan: BMPR1B / KINOMEscan: BMX / KINOMEscan: BRK / KINOMEscan: BRSK1 / KINOMEscan: BRSK2 / KINOMEscan: CAMK1 / KINOMEscan: CAMK1D / KINOMEscan: CAMK1G / KINOMEscan: CAMK2A / KINOMEscan: CAMK2B / KINOMEscan: AAK1 / KINOMEscan: CAMK2D / KINOMEscan: CAMK2G / KINOMEscan: ABL1(F317I)-nonphosphorylated / KINOMEscan: ABL1(F317I)-phosphorylated / KINOMEscan: ABL1(F317L)-nonphosphorylated: unit: % Ctrl
Conditions in all cases: Compound Concentration 10 µM
panel of 442 kinases [1] = target: T1, panel of 442 kinases (Homo sapiens, UniProt Q05655)
T1 construct: purchased KINOMEscan
Source text: (§1) We assessed the selectivity of members of this scaffold using the KINOMEscan methodology across a near comprehensive panel of 442 kinases [[18,27]].

panel of 442 kinases [2] = target: T2, panel of 442 kinases (Homo sapiens, UniProt P08631)
T2 construct: purchased KINOMEscan
Source text: as §1

panel of 442 kinases [3] = target: T3, panel of 442 kinases (Homo sapiens, UniProt P19525)
T3 construct: purchased KINOMEscan
Source text: as §1

panel of 442 kinases [4] = target: T4, panel of 442 kinases (Homo sapiens, UniProt P00519, F317I)
T4 construct: purchased KINOMEscan
Source text: as §1

T3 sequence (P19525 whole entry): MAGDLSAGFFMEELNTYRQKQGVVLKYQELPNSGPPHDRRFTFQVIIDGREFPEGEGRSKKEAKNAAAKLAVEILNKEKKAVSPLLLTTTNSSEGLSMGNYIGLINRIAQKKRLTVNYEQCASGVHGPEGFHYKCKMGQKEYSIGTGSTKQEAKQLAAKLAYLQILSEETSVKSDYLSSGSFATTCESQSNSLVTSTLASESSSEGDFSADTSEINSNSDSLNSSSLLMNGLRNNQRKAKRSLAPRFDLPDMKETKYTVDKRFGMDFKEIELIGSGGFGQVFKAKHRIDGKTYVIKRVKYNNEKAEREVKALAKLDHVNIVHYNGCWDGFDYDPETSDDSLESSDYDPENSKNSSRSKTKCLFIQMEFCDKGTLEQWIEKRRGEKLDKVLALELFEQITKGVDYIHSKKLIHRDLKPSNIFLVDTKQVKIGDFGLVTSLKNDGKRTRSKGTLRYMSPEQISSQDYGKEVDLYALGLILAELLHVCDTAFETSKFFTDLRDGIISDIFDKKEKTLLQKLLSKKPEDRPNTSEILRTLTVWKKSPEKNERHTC
T2 sequence (P08631 whole entry): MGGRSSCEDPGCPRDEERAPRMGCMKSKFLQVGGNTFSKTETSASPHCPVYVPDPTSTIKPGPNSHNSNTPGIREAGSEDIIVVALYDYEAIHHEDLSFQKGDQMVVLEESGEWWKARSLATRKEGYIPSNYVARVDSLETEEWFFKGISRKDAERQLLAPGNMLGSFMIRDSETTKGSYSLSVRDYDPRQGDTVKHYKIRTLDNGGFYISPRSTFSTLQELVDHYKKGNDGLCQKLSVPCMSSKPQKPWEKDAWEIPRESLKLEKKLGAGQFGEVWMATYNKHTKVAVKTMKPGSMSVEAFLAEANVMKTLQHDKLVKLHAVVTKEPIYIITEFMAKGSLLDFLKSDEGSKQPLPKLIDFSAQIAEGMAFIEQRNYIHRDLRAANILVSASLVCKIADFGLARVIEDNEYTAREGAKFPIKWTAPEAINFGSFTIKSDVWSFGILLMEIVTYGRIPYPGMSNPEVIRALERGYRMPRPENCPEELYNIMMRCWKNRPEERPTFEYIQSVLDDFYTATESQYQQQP
T4 sequence (P00519 whole entry F317I): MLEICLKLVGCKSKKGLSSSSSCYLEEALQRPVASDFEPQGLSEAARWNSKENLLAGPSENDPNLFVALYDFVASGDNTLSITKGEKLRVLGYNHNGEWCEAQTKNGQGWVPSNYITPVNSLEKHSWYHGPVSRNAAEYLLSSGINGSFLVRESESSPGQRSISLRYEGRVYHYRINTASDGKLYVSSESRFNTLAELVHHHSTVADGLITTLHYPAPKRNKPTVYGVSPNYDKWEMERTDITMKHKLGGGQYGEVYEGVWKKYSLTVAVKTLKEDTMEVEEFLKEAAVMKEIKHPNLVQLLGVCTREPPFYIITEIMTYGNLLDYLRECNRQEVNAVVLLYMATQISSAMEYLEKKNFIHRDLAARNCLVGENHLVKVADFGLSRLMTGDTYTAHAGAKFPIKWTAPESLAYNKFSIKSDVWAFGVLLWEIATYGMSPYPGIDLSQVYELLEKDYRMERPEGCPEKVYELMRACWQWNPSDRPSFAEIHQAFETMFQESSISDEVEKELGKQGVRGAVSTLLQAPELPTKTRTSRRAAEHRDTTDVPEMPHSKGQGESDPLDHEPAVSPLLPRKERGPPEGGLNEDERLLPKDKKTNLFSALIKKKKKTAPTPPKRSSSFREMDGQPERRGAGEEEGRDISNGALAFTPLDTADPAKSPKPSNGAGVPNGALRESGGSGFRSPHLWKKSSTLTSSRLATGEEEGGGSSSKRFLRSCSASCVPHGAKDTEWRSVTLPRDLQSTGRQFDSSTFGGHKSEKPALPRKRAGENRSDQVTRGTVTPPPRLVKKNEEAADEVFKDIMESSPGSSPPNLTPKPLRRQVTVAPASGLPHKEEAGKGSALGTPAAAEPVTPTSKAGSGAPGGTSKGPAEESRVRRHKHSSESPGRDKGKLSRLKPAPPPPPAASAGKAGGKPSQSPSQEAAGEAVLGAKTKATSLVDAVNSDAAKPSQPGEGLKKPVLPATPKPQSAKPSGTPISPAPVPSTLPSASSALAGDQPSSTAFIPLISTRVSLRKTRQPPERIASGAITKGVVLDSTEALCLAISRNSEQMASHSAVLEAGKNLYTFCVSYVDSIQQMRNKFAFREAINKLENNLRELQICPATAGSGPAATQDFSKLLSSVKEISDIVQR
T1 sequence (Q05655 whole entry): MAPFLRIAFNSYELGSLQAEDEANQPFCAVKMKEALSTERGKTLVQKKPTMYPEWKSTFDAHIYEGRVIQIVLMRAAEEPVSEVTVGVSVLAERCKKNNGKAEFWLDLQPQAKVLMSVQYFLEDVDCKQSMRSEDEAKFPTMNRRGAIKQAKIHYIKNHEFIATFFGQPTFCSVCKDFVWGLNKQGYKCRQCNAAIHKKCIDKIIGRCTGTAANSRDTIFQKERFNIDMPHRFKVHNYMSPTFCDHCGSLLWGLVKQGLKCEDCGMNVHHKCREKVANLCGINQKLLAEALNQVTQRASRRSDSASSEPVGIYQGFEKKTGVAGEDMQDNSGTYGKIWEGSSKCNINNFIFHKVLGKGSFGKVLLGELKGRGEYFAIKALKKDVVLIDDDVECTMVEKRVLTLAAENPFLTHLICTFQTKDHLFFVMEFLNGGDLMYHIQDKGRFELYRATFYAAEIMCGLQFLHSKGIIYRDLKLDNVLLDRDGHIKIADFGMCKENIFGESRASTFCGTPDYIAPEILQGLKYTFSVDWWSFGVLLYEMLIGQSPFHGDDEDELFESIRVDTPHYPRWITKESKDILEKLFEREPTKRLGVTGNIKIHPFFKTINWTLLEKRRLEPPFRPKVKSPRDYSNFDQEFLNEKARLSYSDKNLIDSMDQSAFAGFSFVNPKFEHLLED

| SMILES | KINOMEscan: PRKCD (panel of 442 kinases [1]) | KINOMEscan: HCK (panel of 442 kinases [2]) | KINOMEscan: PRKR (panel of 442 kinases [3]) | KINOMEscan: ABL1(F317I)-nonphosphorylated (panel of 442 kinases [4]) | KINOMEscan: ABL1(F317I)-phosphorylated (panel of 442 kinases [4]) |
| --- | --- | --- | --- | --- | --- |
| CCOc1cc(C(=O)N2CCC(N3CCN(C)CC3)CC2)ccc1Nc1ncc2c(n1)N(C1CCCC1)c1ccccc1C(=O)N2C [Compound 26] | 100 | 100 | 97 | 51 | 64 |
| COc1cc(C(=O)N2CCC(N3CCN(C)CC3)CC2)ccc1Nc1ncc2c(n1)N1CCc3cccc(c31)C(=O)N2C [Compound 24] | 67 | – | 33 | 17 | 24 |
| COc1cc(C(=O)N2CCC(N3CCN(C)CC3)CC2)ccc1Nc1ncc2c(n1)N(C)c1ccccc1C(=O)N2C [15 (LRRK2-IN-1)] | 75 | 100 | 84 | 15 | 17 |
| COc1cc(C(=O)N2CCC(N3CCN(C)CC3)CC2)ccc1Nc1ncc2c(n1)N(C1CCCC1)c1ccccc1C(=O)N2C [Compound 25, 11-cyclopentyl-2-((2-methoxy-4-(4-(4-methylpiperazin-1-yl)piperidine-1-carbonyl)phenyl)amino)-5-methyl-5H-benzo[e]pyrimido[5,4-b][1,4]diazepin-6(11H)-one] | 100 | 97 | 71 | 26 | 29 |
